Consider 1 compound from patent publication US20040009194A1, “Methods, and compositions for a therapeutic antigen presenting cell vaccine for treatment of immunodeficiency virus” (priority 2002, published 2004).

The test system of assay [1] is autologous B-LCL infected by recombinant vaccinia virus containing a gag gene of HIV-1. Type of assay: cell-based, human.
In a further assay the test system is autologous PBL. Description: Proliferation of patient T cells stimulated with inactivated-virus-pulsed autologous DC ([methyl-3H]thymidine incorporation). It is filed as cell-based, human. The note with it: indinavir 10 nM (nonantiviral concentration); P<0.001. The text has this: To mimic the antigen capture by DC in peripheral tissues, immature DC (i.e., competent in antigen capture) generated by culturing patient blood monocytes with GM-CSF and IL-4 for 5 days were pulsed with autologous viral isolates inactivated by 2,2′ dithiodipyridine or aldrithiol-2 (AT-2), which preserves the intact native conformation and fusogenic activity of HIV Env protein. As will be appreciated by those skilled in the art, there are a number of mechanisms suitable to inactivate a virus, and any of these methods can be used so long as the method preserves the intact native conformation and fusogenic activity of HIV Env protein. To model the presentation of antigens in lymphoid tissue, virus-pulsed DC were matured in the presence of TNF-α and IFN-α for an additional 3 days to maximize their T-cell-stimulatory activity. Matured virus-pulsed DC was then used to stimulate autologous PBL at a stimulator/responder ratio of 1:3 in the absence or presence of PI at a nonantiviral concentration (10 nM indinavir). By day 7 of coculture, PBL were restimulated with the same virus-pulsed DC for an additional 7 days. At day 14, proliferation was measured by incubating PBL with virus-pulsed DC at stimulator/responder ratios of 1:3 to 1:100. […] HIV-1 gag-specific CTL activity following stimulation with virus-pulsed autologous DC.
(Uptake of a labelled nucleoside into DNA is a usual measure of proliferation.)

Consider `CC(C)(C)NC(=O)[C@@H]1CN(Cc2cccnc2)CCN1C[C@@H](O)C[C@@H](Cc1ccccc1)C(=O)N[C@H]1c2ccccc2C[C@H]1O` [indinavir], for which, in assay [1], the “effect of indinavir on gag-specific CTL activity” value is given as “significantly enhanced”. The “effect of PI on DC-mediated T-cell proliferation” value with autologous PBL was “significantly enhanced”.
